Measured values from patent publication US20240238423A9, “TETRAHYDROISOQUINOLINE HETEROBIFUNCTIONAL BCL-XL DEGRADERS” (Treeline Biosciences, Inc., priority 2022, published 2024).
Where two headings read alike, the source gives them in different places.

Biological target: T1, Human BCL-XL protein (N-terminal HiBiT tagged BCL-XL in HT1080 cells) (Homo sapiens, UniProt Q07817)
T1 construct: expressed in transfected cells; host or cells: HT-1080 (ATCC CCL-121), stably transduced with lentivirus pLV-UBC-N-HiBiT-BCL-XL-PGK-puro and selected with puromycin
Assay: HiBiT based degradation assay
Assay type: cell-based
Conditions: HT1080 cells expressing HiBiT-BCL-XL; for Ymin (24 h) / Ymin (6 h): BCL-XL degradation normalized with DMSO control; for DC50: BCL-XL degradation
How it was run: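 This HiBiT degradation assay measured loss of BCL-XL in HT1080 cells that stably express an N-terminal HiBiT-BCL-XL fusion delivered by lentivirus. Cells were added to compound-spotted 384-well plates, and luminescence was read on a PHERAstar FSX reader. Signal was expressed relative to DMSO controls, curves were fitted by four-parameter logistic regression, and for hook-shaped curves the Ymin point served as the bottom plateau when calculating EC50.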

T1 sequence (Q07817 whole entry): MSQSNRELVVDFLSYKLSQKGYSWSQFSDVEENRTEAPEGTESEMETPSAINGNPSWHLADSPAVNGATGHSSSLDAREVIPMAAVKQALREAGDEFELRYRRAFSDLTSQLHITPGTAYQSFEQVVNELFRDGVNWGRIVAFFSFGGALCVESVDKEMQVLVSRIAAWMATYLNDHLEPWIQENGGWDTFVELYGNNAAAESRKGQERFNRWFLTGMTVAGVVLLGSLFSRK

| Ymin (24 h) | DC50 (24 h, read-out: EC50 (24 h)) | Ymin (6 h) | DC50 (6 h, read-out: EC50 (6 h)) | SMILES |
| --- | --- | --- | --- | --- |
| A (Ymin < 50%) | < 100 nM | – | – | Cc1c(O[C@H]2CC[C@H](CCCCN3CCC[C@@H](c4cccc5c(C6CCC(=O)NC6=O)nn(C)c45)C3)CC2)cccc1-c1ccc(N2CCc3cccc(C(=O)Nc4nc5ccccc5s4)c3C2)nc1C(=O)O (single isomer, unassigned) [Compound 351b] |
| A (Ymin < 50%) | < 100 nM | – | – | Cc1c(O[C@H]2CC[C@H](CCCN3CCC(c4cccc5c(C6CCC(=O)NC6=O)nn(C)c45)C3)CC2)cccc1-c1ccc(N2CCc3cccc(C(=O)Nc4nc5ccccc5s4)c3C2)nc1C(=O)O (single isomer, unassigned) [Compound 320a] |
| B (50% ≤ Ymin < 70%) | < 100 nM | – | – | Cc1c(OCCN2CCN(CC3CCN(c4cccc5c(C6CCC(=O)NC6=O)nn(C)c45)CC3)CC2)cccc1-c1ccc(N2CCc3cccc(C(=O)Nc4nc5ccccc5s4)c3C2)nc1C(=O)O (centres unmarked) [Compound 228, 6-(8-(benzo[d]thiazol-2-ylcarbamoyl)-3,4-dihydroisoquinolin-2(1H)-yl)-3-(3-(2-(4-((1-(3-(2,6-dioxopiperidin-3-yl)-1-methyl-1H-indazol-7-yl)piperidin-4-yl)methyl)piperazin-1-yl)ethoxy)-2-methylphenyl)picolinic acid] |
| A (Ymin < 50%) | < 100 nM | – | – | Cc1c(OCCCC2CCN(C3CCN(c4ccc5c(C6CCC(=O)NC6=O)nn(C)c5c4)CC3)CC2)cccc1-c1ccc(N2CCc3cccc(C(=O)Nc4nc5ccccc5s4)c3C2)nc1C(=O)O (centres unmarked) [Compound 306, 6-(8-(benzo[d]thiazol-2-ylcarbamoyl)-3,4-dihydroisoquinolin-2(1H)-yl)-3-(3-(3-(1′-(3-(2,6-dioxopiperidin-3-yl)-1-methyl-1H-indazol-6-yl)-[1,4′-bipiperidin]-4-yl)propoxy)-2-methylphenyl)picolinic acid] |
| A (Ymin < 50%) | < 100 nM | – | – | Cc1c(OCCCC2CCN(CCN3CCC(c4ccc5c(C6CCC(=O)NC6=O)nn(C)c5c4)CC3)CC2)cccc1-c1ccc(N2CCc3cccc(C(=O)Nc4nc5ccccc5s4)c3C2)nc1C(=O)O (centres unmarked) [Compound 255, 6-[8-(1,3-benzothiazol-2-ylcarbamoyl)-3,4-dihydro-1H-isoquinolin-2-yl]-3-[3-[3-[1-[2-[4-[3-(2,6-dioxo-3-piperidyl)-1-methyl-indazol-6-yl]-1-piperidyl]ethyl]-4-piperidyl]propoxy]-2-methyl-phenyl]pyridine-2-carboxylic acid] |
| A (Ymin < 50%) | < 100 nM | – | – | Cc1c(OCCCC2CCN(CCC3CCN(c4ccc5c(C6CCC(=O)NC6=O)nn(C)c5c4)CC3)CC2)cccc1-c1ccc(N2CCc3cccc(C(=O)Nc4nc5ccccc5s4)c3C2)nc1C(=O)O (centres unmarked) [Compound 192, 6-(8-(benzo[d]thiazol-2-ylcarbamoyl)-3,4-dihydroisoquinolin-2(1H)-yl)-3-(3-(3-(1-(2-(1-(3-(2,6-dioxopiperidin-3-yl)-1-methyl-1H-indazol-6-yl)piperidin-4-yl)ethyl)piperidin-4-yl)propoxy)-2-methylphenyl)picolinic acid] |
| A (Ymin < 50%) | < 100 nM | – | – | Cc1c(Oc2ccc(CCCCN3CCN(c4ccc5c(C6CCC(=O)NC6=O)nn(C)c5c4)CC3)cc2)cccc1-c1ccc(N2CCc3cccc(C(=O)Nc4nc5ccccc5s4)c3C2)nc1C(=O)O (centres unmarked) [Compound 163, 6-(8-(benzo[d]thiazol-2-ylcarbamoyl)-3,4-dihydroisoquinolin-2(1H)-yl)-3-(3-(4-(4-(4-(3-(2,6-dioxopiperidin-3-yl)-1-methyl-1H-indazol-6-yl)piperazin-1-yl)butyl)phenoxy)-2-methylphenyl)picolinic acid] |
| B (50% ≤ Ymin < 70%) | 100 to 1000 nM | – | – | Cc1c(OCC(F)(F)CC2CCN(CC(=O)Nc3cccc4c(C5CCC(=O)NC5=O)nn(C)c34)CC2)cccc1-c1ccc(N2CCc3cccc(C(=O)Nc4nc5ccccc5s4)c3C2)nc1C(=O)O (centres unmarked) [Compound 170, 6-[8-(1,3-benzothiazol-2-ylcarbamoyl)-3,4-dihydro-1H-isoquinolin-2-yl]-3-[3-[3-[1-[2-[[3-(2,6-dioxo-3-piperidyl)-1-methyl-indazol-7-yl]amino]-2-oxo-ethyl]-4-piperidyl]-2,2-difluoro-propoxy]-2-methyl-phenyl]pyridine-2-carboxylic acid] |
| – | – | B (50% ≤ Ymin < 70%) | < 100 nM | Cc1c(-c2ccc(N3CCc4cccc(C(=O)Nc5nc6ccccc6s5)c4C3)nc2C(=O)NCCCCCCCCCC(=O)Nc2ccc3c(C4CCC(=O)NC4=O)nn(C)c3c2)cnn1CC12CC3CC(CC(C3)C1)C2 (centres unmarked) [Compound 112, 2-[5-[1-(1-adamantylmethyl)-5-methyl-pyrazol-4-yl]-6-[[10-[[3-(2,6-dioxo-3-piperidyl)-1-methyl-indazol-6-yl]amino]-10-oxo-decyl]carbamoyl]-2-pyridyl]-N-(1,3-benzothiazol-2-yl)-3,4-dihydro-1H-isoquinoline-8-carboxamide] |
| A (Ymin < 50%) | < 100 nM | – | – | Cc1c(O[C@H]2CC[C@H](CCCN3CCN(c4ccc5c(C6CCC(=O)NC6=O)nn(C)c5c4)C(C)(C)C3)CC2)cccc1-c1ccc(N2CCc3cccc(C(=O)Nc4nc5ccccc5s4)c3C2)nc1C(=O)O (some centres unmarked) [Compound 318a, 6-(8-(benzo[d]thiazol-2-ylcarbamoyl)-3,4-dihydroisoquinolin-2(1H)-yl)-3-(3-(((1s,4r)-4-(3-(4-(3-(2,6-dioxopiperidin-3-yl)-1-methyl-1H-indazol-6-yl)-3,3-dimethylpiperazin-1-yl)propyl)cyclohexyl)oxy)-2-methylphenyl)picolinic acid] |
| A (Ymin < 50%) | < 100 nM | A (Ymin < 50%) | < 100 nM | Cc1cc(OCCCN2C[C@@H](C)N(CC(=O)N3CCN(c4ccc5c(C6CCC(=O)NC6=O)nn(C)c5c4)CC3)[C@@H](C)C2)ccc1-c1ccc(N2CCc3cccc(C(=O)Nc4nc5ccccc5s4)c3C2)nc1C(=O)O (stereo partly drawn) [Compound 154a, 6-(8-(Benzo[d]thiazol-2-ylcarbamoyl)-3,4-dihydroisoquinolin-2(1H)-yl)-3-(4-(3-((3R,5S)-4-(2-(4-(3-(2,6-dioxopiperidin-3-yl)-1-methyl-1H-indazol-6-yl)piperazin-1-yl)-2-oxoethyl)-3,5-dimethylpiperazin-1-yl)propoxy)-2-methylphenyl)picolinic acid] |
| – | – | B (50% ≤ Ymin < 70%) | < 100 nM | Cc1c(-c2ccc(N3CCc4cccc(C(=O)Nc5nc6ccccc6s5)c4C3)nc2C(=O)NCC(=O)Nc2ccc3c(C4CCC(=O)NC4=O)nn(C)c3c2)cnn1CC12CC3CC(CC(C3)C1)C2 [Compound 115, 2-(5-(1-((1R,3S)-adamantan-1-ylmethyl)-5-methyl-1H-pyrazol-4-yl)-6-((2-((3-(2,6-dioxopiperidin-3-yl)-1-methyl-1H-indazol-6-yl)amino)-2-oxoethyl)carbamoyl)pyridin-2-yl)-N-(benzo[d]thiazol-2-yl)-1,2,3,4-tetrahydroisoquinoline-8-carboxamide] |
| A (Ymin < 50%) | < 100 nM | A (Ymin < 50%) | < 100 nM | Cc1c(OCCCN2CCN(CCCOc3ccc4c(C5CCC(=O)NC5=O)nn(C)c4c3)CC2)cccc1-c1ccc(N2CCc3cccc(C(=O)Nc4nc5ccccc5s4)c3C2)nc1C(=O)O (centres unmarked) [Compound 133, 6-(8-(Benzo[d]thiazol-2-ylcarbamoyl)-3,4-dihydroisoquinolin-2(1H)-yl)-3-(3-(3-(4-(3-((3-(2,6-dioxopiperidin-3-yl)-1-methyl-1H-indazol-6-yl)oxy)propyl)piperazin-1-yl)propoxy)-2-methylphenyl)picolinic acid] |
| – | – | A (Ymin < 50%) | < 100 nM | Cc1c(-c2ccc(N3CCc4cccc(C(=O)Nc5nc6ccccc6s5)c4C3)nc2C(=O)NCCCCCCCC(=O)Nc2cccc3c(C4CCC(=O)NC4=O)nn(C)c23)cnn1CC12CC3CC(CC(C3)C1)C2 (centres unmarked) [Compound 114, 2-[5-[1-(1-adamantylmethyl)-5-methyl-pyrazol-4-yl]-6-[[8-[[3-(2,6-dioxo-3-piperidyl)-1-methyl-indazol-7-yl]amino]-8-oxo-octyl]carbamoyl]-2-pyridyl]-N-(1,3-benzothiazol-2-yl)-3,4-dihydro-1H-isoquinoline-8-carboxamide] |
| A (Ymin < 50%) | < 100 nM | – | – | Cc1c(O[C@H]2CC[C@H]([C@H](C)CCN3CCN(c4ccc5c(C6CCC(=O)NC6=O)nn(C)c5c4)CC3)CC2)cccc1-c1ccc(N2CCc3cccc(C(=O)Nc4nc5ccccc5s4)c3C2)nc1C(=O)O (single isomer, unassigned) [Compound 310a] |

| SMILES | Ymin (24 h) | DC50 (24 h, read-out: EC50 (24 h)) | Ymin (6 h) | DC50 (6 h, read-out: EC50 (6 h)) |
| --- | --- | --- | --- | --- |
| Cc1c(OCCCCCCCCN2CCN(c3cccc4c(C5CCC(=O)NC5=O)nn(C)c34)CC2)cccc1-c1ccc(N2CCc3cccc(C(=O)Nc4nc5ccccc5s4)c3C2)nc1C(=O)O (centres unmarked) [Compound 217, 6-[8-(1,3-benzothiazol-2-ylcarbamoyl)-3,4-dihydro-1H-isoquinolin-2-yl]-3-[3-[8-[4-[3-(2,6-dioxo-3-piperidyl)-1-methyl-indazol-7-yl]piperazin-1-yl]octoxy]-2-methyl-phenyl]pyridine-2-carboxylic acid] | B (50% ≤ Ymin < 70%) | < 100 nM | B (50% ≤ Ymin < 70%) | < 100 nM |
